Test results from patent publication US20260085087A1, “CHEMICAL COMPOUND COMPRISING A TRIAZINE GROUP AND METHOD FOR PRODUCING SAME” (priority 2020, published 2026).
[TzD] = triazinylamidophosphate internucleotide linkage carrying two dodecyl amine moieties; {FAM} = fluorescein (FAM) label

What was measured:
HEK293T cells [1] = assay: Comparison of cell penetration efficiency of oligonucleotides with lipophilic moieties in various modification backbones; type: cell-based, human; settings: 4 hours after transfection
Method: (§1) Cultured HEK293T and T98G human cells were plated onto the wells of a 24-well microplate in a concentration 20×10^4 cells/well (HEK293T) or 12×10^4 cells/well (T98G) in 500 μl/well IMDM media comprising 10% FBS and 1% solution of antibiotic and antimycotic agents (10 mg/ml streptomycin, 10,000 U/ml penicillin, and 25 mg/ml amphotericin (IMP Biomedicals, Germany) (hereinafter, the complete medium), and incubated for 18 hrs to provide cell attachment. Furthermore, cell medium was replaced with 200 μl/well IMDM medium in the absence of serum and antibiotic agents. Oligonucleotides (OSNF, OSN4F) were dissolved in Opti-MEM and added to the cells until the final concentration of 1 or 5 μM (50 μl/well) was achieved. […] The cells were analyzed on a flow cytometer NovoCyte 3000 (ACEA Biosciences, USA). […] Oligonucleotide penetration efficiency was characterized by two indicators: % of fluorescent cells in a population and average intensity of cell fluorescence in a sample, which were measured using flow cytometry in 4 hours after transfection. Histograms A and C show % of fluorescent cells, histograms B and D show average fluorescence intensity. RFU means relative fluorescence units, LF means Lipofectamine 2000. […]
Cell fluorescence percent (left) and average fluorescence intensity (right) were measured using flow cytometry in 4 hours after transfection. […]

HEK293T cells [2] = assay: Confocal microscopy of penetration into human cells; type: cell-based; settings: 1 μM, 4 hours, no serum
Method: In this study, oligonucleotide 5′-[FAM]-CTGACTATGAAGTAT*T-3′ (OSN4F) was used, wherein * is a position of triazinylamidophosphate unit having two dodecyl moieties.
Cultured human cells HEK293T were plated on slides placed to the wells of the 24-well microplate, in a concentration of 6×10^4 cells/well in a complete IMDM medium and incubated at 37° C. in 5% CO2 for 12 to 18 hours to provide cell attachment. Then, the medium was replaced to IMDM, in the absence of serum and antibiotic agent, which comprises OSN4F at a concentration of 1 μM. The cells were incubated in the presence of oligonucleotide at 37° C. in 5% CO2 for 4 hours. […]
Intracellular location of oligonucleotide OSN4F was studied using confocal microscope LSM710 (Zeiss, Germany) with the plan-apochromat 63×/1.40 Oil DIC M27 (Zeiss, Germany) lens and two channels, blue and green. Fluorescence in a blue channel at exciting laser wavelength of 405 nm corresponded to NucBlue (cell nuclei staining); green channel at exciting laser wavelength of 488 nm corresponded to fluorescence of oligonucleotide OSN4F labelled with a 6-carboxyfluorescein moiety.

HEK293T cells [3] = assay: HEK293T cell transfection efficiency by flow cytofluorometry; type: cell-based, human; settings: 4 hours
Method: (§2) To study cell penetration efficiency, oligonucleotide 5′-[FAM]-CTGACTATGAAGTAT*T-3′ (OSN4F) was used, wherein * is a position of thiazinylamidophosphate unit carrying two dodecyl moieties, and control unmodified oligonucleotide 5′-[FAM]-CTGACTATGAAGTATT-3′ (OSNF).
as §1, with “Histograms A and C show % of fluorescent cells, histograms B and D show average fluorescence intensity.” left out

T98G cells = assay: T98G cell transfection efficiency by flow cytofluorometry; type: cell-based, human; settings: 4 hours
Method: as §2
as §1, with “Histograms A and C show % of fluorescent cells, histograms B and D show average fluorescence intensity.” left out

5′-[FAM]-CTGACTATGAAGTAT*T-3′ (CTGACTATGAAGTATT; DNA, linkages o14 [TzD]1 (s phosphorothioate, o phosphodiester), 5' {FAM}, methylation of C not given here) [OSN4F, * is a triazinylamidophosphate unit carrying two dodecyl moieties]
penetration rate (cell fluorescence percent) relative to PGO, PN, ODF (HEK293T cells [1]; 1 μM): significantly higher than in other oligonucleotides used
average fluorescence intensity relative to other oligonucleotides (HEK293T cells [1]): penetrates cells in larger amounts than other oligonucleotides
intracellular location (HEK293T cells [2]): positioning in the cytoplasm and various cell compartments
penetration efficiency (number of transfected cells and fluorescence intensity) (HEK293T cells [3]; 1 or 5 μM, no additional transfection agent): efficiently penetrates the HEK293T cells
penetration efficiency relative to control OSNF with Lipofectamine 2000 (HEK293T cells [3]; OSN4F without transfection agent): comparable
penetration efficiency relative to control oligonucleotide (T98G cells; 1 or 5 μM, no additional transfectants): penetrates the T98G cells more efficiently than the control oligonucleotide
penetration efficiency in T98G relative to HEK293T cells (T98G cells): reduced relative to the HEK293K kidney cells
